What was measured:
[1] = molecular target: T1, human recombinant mGlu1a receptor (Homo sapiens, UniProt Q13255); test: glutamate induced calcium flux (FLIPR, Fluo-3) in AV-12 cells expressing mGlu1a; type: cell-based; settings: inhibition of peak fluorescence response to glutamate at EC90% (10 μM)
T1 construct: expressed in transfected cells
Description: The relative potency and selectivity of compounds of the instant invention for mGlu1 receptors is evaluated using stable clonal cell lines expressing recombinant mGlu1, 2, 3, 4. 5 or 8 receptors transfected into AV12 cell lines containing the rat EAAT1 glutamate transporter (RGT) cells.
For example, in more detail, compounds of the present invention are evaluated for effects on glutamate induced calcium flux responses using an AV-12 cell line expressing human recombinant mGlu1a receptor protein (see Kingston et al. Neuropharmacology. 37(1):1-12, 1998). mGlu1 receptor mediated responses are determined by changes in intracellular calcium concentrations measured by a fluorescent calcium sensitive dye Fluo-3. […] Unincorporated extracellular dye is removed from the wells by washing with buffer solution, and plates are then transferred to a 96-channel fluorimetric imaging plate reader (FLIPR-Molecular Devices Corporation, La Jolla, Calif., USA). Baseline fluorescence readings are undertaken for 10 sec prior to addition of test compounds by an automatic pipetting device integral to the FLIPR instrument. Following a 20 sec delay, glutamate is then added to the wells at an EC90% concentration (10 μM); and changes in fluorescence are monitored over 60 sec. […] IC50 values are calculated using a 4 parameter logistic curve fitting program (GraphPad Prism™ V4 or Activity Base™ V5.3 software).

[2] = system: fasted male Harlan Sprague Dawley rats; test: Formalin model; type: in vivo, rat
Description: (§1) These well known pain models conveniently may be carried out as summarized below. […] All data are analyzed by ANOVA and Dunnett's t-test using JMPv4.1 (SAS Institute Inc., Cary, N.C.) statistical software unless otherwise indicated. Data are expressed as means±SEM. Specific conditions for each model are briefly described.
Formalin model: Drug is administered prior to formalin (50 μl, 5%), injected s.c. into the dorso-lateral surface of the right hindpaw. Paw-licking behavior is measured in an automated assay, as number of events, from 0-50 minutes after formalin. Data are expressed as paw-licking pain behavior events in early phase (0-5 minutes) or late phase (15-40 minutes). […] L5/L6 Spinal Nerve ligation model: Tight ligation is performed on L5 and L6 spinal nerves (one side only). Two weeks later, mechanical allodynia behavior is measured using von Frey filaments using incremental bending forces (0.5-15 g) at various time points after drug administration. Carrageenan model: Carrageenan (100 μl, 3%) is injected into the plantar surface of the right paw, and drug is administered two hours after carrageenan. Thermal hyperalgesia is measured using a radiant heat source, with a 30 second cut off to prevent tissue damage. Paw withdrawal latency in seconds is measured as the difference between the inflammed paw and the non-inflammed left paw. Capsaicin model: Drug is administered prior to capsaicin. Capsaicin (25 μl, 30 μg) in olive oil is injected into the plantar surface of the right paw. Mechanical allodynia behavior is measured using von Frey filaments using incremental bending forces (0.5-15 g) at 15 minutes and 1 hour after capsaicin. Tail Flick model: Radiant heat source at base of tail with 10 sec cut off is used to elicit tail flick response at various time points after drug administration. Rotorod test: Male Sprague Dawley rats (180-230 g, Harlan labs, Indianapolis) are used for the rotorod test. […] Data are analyzed by ANOVA and Dunnett's t-test using JMPv4.1 (SAS Institute Inc., Cary, N.C.) statistical software. Data are expressed as means±SEM.

[3] = system: fasted male Harlan Sprague Dawley rats; test: Carrageenan model; type: in vivo, rat; settings: fasted male HSD rats, at doses with no deficit in the rotorod test
Description: as §1
(§2) Formalin model: Drug is administered prior to formalin (50 μl, 5%), injected s.c. into the dorso-lateral surface of the right hindpaw. Paw-licking behavior is measured in an automated assay, as number of events, from 0-50 minutes after formalin. Data are expressed as paw-licking pain behavior events in early phase (0-5 minutes) or late phase (15-40 minutes). […] Two weeks later, mechanical allodynia behavior is measured using von Frey filaments using incremental bending forces (0.5-15 g) at various time points after drug administration. […] Thermal hyperalgesia is measured using a radiant heat source, with a 30 second cut off to prevent tissue damage. Paw withdrawal latency in seconds is measured as the difference between the inflammed paw and the non-inflammed left paw. […] Mechanical allodynia behavior is measured using von Frey filaments using incremental bending forces (0.5-15 g) at 15 minutes and 1 hour after capsaicin. […] Data are analyzed by ANOVA and Dunnett's t-test using JMPv4.1 (SAS Institute Inc., Cary, N.C.) statistical software. Data are expressed as means±SEM.

[4] = system: fasted male Harlan Sprague Dawley rats; test: Capsaicin model; type: in vivo, rat; settings: fasted male HSD rats, at doses with no deficit in the rotorod test
Description: as §1, §2

[5] = system: fasted male Harlan Sprague Dawley rats; test: Tail Flick model; type: in vivo, rat; settings: fasted male HSD rats, at doses with no deficit in the rotorod test
Description: as §1, §2

[6] = system: non-fasted male HSD rats; test: L5/L6 Spinal Nerve ligation model; type: in vivo, rat; settings: non-fasted male HSD rats (300-350 g), at doses with no deficit in the rotorod test
Description: as §1, §2

[7] = system: Male Sprague Dawley rats; test: Rotorod test; type: in vivo, rat; settings: at the doses active in the pain models
Description: as §1, §2

[8] = in vivo; cited from earlier work
[9] = in vivo; cited from earlier work; remark: listed apart in the source

T1 sequence (Q13255 19-1194): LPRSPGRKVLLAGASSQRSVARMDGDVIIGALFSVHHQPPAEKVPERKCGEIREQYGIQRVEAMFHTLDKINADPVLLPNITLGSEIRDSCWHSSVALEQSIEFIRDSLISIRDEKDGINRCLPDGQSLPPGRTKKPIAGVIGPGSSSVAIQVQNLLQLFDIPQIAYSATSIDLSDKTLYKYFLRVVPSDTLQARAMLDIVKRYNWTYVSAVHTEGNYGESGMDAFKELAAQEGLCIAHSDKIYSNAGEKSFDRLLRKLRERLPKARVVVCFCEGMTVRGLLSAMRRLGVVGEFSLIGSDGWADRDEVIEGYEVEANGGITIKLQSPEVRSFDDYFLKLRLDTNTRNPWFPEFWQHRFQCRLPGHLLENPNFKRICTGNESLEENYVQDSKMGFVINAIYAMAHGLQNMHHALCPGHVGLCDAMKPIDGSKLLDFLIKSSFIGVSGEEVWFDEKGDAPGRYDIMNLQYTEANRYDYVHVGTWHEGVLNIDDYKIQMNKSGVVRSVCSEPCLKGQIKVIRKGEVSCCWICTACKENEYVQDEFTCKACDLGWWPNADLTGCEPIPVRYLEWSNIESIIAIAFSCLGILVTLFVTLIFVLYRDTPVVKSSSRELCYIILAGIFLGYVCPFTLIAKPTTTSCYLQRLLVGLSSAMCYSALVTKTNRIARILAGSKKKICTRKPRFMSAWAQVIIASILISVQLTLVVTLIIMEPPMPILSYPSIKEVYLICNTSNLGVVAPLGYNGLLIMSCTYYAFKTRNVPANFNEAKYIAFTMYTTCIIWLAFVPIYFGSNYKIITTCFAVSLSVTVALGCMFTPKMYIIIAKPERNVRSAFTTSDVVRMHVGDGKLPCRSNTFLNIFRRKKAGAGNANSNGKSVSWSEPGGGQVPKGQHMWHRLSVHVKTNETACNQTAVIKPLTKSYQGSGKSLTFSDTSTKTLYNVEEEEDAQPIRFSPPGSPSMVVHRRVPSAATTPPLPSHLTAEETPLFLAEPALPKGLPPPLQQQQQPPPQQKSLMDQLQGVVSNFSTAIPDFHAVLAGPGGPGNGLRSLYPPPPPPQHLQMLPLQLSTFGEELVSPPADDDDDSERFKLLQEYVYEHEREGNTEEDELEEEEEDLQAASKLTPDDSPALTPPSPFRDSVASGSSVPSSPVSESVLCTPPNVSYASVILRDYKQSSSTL

SMILES | IC50 [1] [nM] | activity in the formalin model ([2]; fasted male HSD rats, at doses with no deficit in the rotorod test) | late phase pain behavior (paw-licking, 15-40 minutes) ([2]; fasted rats, 3 to 60 mg/kg, p.o., 1 hour prior to formalin) | activity in the carrageenan model [3] | activity in the capsaicin model [4] | activity in the tail flick model [5] | activity in the L5/L6 spinal nerve ligation model [6] | performance in the rotorod test [7] | late phase pain behavior (paw-licking, 15-40 minutes) ([2]; 1 to 30 mg/kg) | nocifensive responses in the formalin test [8] | mechanical allodynia in the L5/L6 spinal nerve ligation model [9]
COc1ccc(-c2nsc(NC(=O)[C@@H]3C[C@H]3C)c2C)cc1 [Example 1, (R,R)—N-[3-(4-methoxyphenyl)-4-methylisothiazol-5-yl]-2-methylcyclopropanecarboxamide] | < 20 | dose-dependent activity | dose dependent attenuation | dose-dependent activity | dose-dependent activity | dose-dependent activity | dose-dependent activity | no deficit in performance |  |  | 
Cc1c(-c2ccc(Cl)cc2)nsc1NC(=O)[C@@H]1C[C@H]1C [Example 6, (R,R)—N-[3-(4-chlorophenyl)-4-methylisothiazol-5-yl]-2-methylcyclopropanecarboxamide] | < 20 |  |  |  |  |  |  |  | dose dependent attenuation |  | 
COc1ccc(Nc2ncnc3ccc(OC)cc23)cc1 [LY456236] |  |  |  |  |  |  |  |  |  | can reduce nocifensive responses | can reduce

— patent US7960419B2, “Substituted carboxamides” (Eli Lilly and Company, priority 2006, dated 2011)
